# Assays:
# [1] = Plasma protein binding by equilibrium dialysis, rat plasma; format: in vitro ADME; conditions: plasma, 5 μM, read-out: fu, plasma %
# Description: Plasma Protein Binding by Equilibrium Dialysis (Independently Performed by Pharmaron Inc., Ninqbo, CN)
# Initially, 1 mM solutions of test compounds and the control compound (Ketoconzaole) were prepared in DMSO. After this, dialysis membranes were soaked in ultrapure water for 60 min to separate strips, followed by 20% aq. ethanol for 20 min, and finally in a dialysis buffer for 20 min. […] After this, 597 μL of blank plasma solution followed by 3 μL of the working solutions of either test compounds or control compound were added to a new plastic plate or separate plastic tube and the solutions were vortexed at 1,000 rpm for 2 min. Immediately after this, 50 μL of spiked plasma solution suspension was transferred to a 96-well plate to act as T=0 control. The remaining samples were treated in the same manner, whereby all remaining spiked plasma solutions were added to the incubator for the duration of the study.
# Cells were then loaded with 120 μL of the plasma samples and dialyzed against an equal volume of dialysis buffer (PBS). […] At the end of incubation, the lid was removed and 50 μL of post-dialysis samples were removed from both buffer and plasma solution chambers into a separate 96-well plate for analysis. The plasma solutions (50 μL) were then added to the buffer samples along with an equal volume of PBS (50 μL) to the collected plasma solution samples. The plate was shaken at 1,000 rpm for 2 min and 400 μL of acetonitrile containing an appropriate internal standard was added to precipitate protein and release compound. The samples were then vortexed at 1,000 rpm for an additional 10 min followed by centrifugation at 3,220 g for 30 min. […] The samples were analyzed by LC-MS/MS and 100 μL of distilled water was added to each sample prior to analysis.
# Concentrations of test compounds and control compound in buffer and plasma solution chambers was determined and percentages of test compounds and control compound bound using the following equations (mean of n=2 replicates): […]
# MDCKII-MDR1 permeability = conditions: dog, MDCK-MDR1, pH 7.4
# Description: MDCKII-MDR1 Permeability (Independently Performed By: Pharmaron Inc., Ninqbo, CN)
# To each well of the Transwell insert and reservoir were added 50 μL and 25 mL of cell culture medium, respectively.
# To determine the rate of drug transport in the apical to basolateral direction, 125 μL of the working solution of either test compounds or control compounds was added to the Transwell insert (apical compartment) and a 50 μL sample was immediately transferred from the apical compartment to 200 μL of acetonitrile containing internal standard (100 nM alprazolam, 200 nM caffeine, and 100 nM tolbutamide) in a new 96-well plate as the initial donor sample (A-B). The sample was then vortexed at 1,000 rpm for 10 min. The receiver plate (basolateral compartment) wells were then filled with 235 μL transport buffer. To determine the rate of drug transport in the basolateral to apical direction, 285 μL of the working solution of either test compounds or control compounds was added to the receiver plate (basolateral compartment) wells and a 50 μL of sample was immediately transferred from the basolateral compartment to 200 μL of acetonitrile containing internal standard in a new 96-well plate as the initial donor sample (B-A). The sample was vortexed for 10 min at 1,000 rpm. The Transwell insert (apical compartment) was then filled with 75 μL of transport buffer and the apical to basolateral direction and the basolateral to apical direction were done at the same time. […] After incubation, 50 μL samples from donor sides (apical compartment for Ap→BI flux, and basolateral compartment BI→Ap) and receiver sides (basolateral compartment for Ap→BI flux, and apical compartment for BI→Ap) were transferred to wells of a new 96-well plate, followed by the addition of 200 μL acetonitrile containing internal standard. […] An aliquot of 100 μL of the supernatant was mixed with an appropriate volume of ultra-pure water before LC-MS/MS analysis.
# (§1) To monitor for monolayer integrity, Lucifer yellow leakage was determined after the 2 h transport period. This began by preparing a stock solution of Lucifer yellow in DMSO and diluted with HBSS (10 mM HEPES, pH 7.4.) to reach a final concentration of 100 μM. To each Transwell insert (apical compartment) was then added 100 μL of the Lucifer yellow solution, followed by filling the wells in the receiver plate (basolateral compartment) with 300 μL of HBSS (10 mM HEPES, pH 7.4).
# (§2) The efflux ratio was determined using the following equation: […]
# Caco-2 permeability = conditions: human
# Description: Caco-2 Permeability (Independently Performed by Pharmaron Inc., Ningbo, CN)
# To each well of the Transwell insert and reservoir were added 50 μL and 25 mL of cell culture medium, respectively. […] Following this, the Caco-2 plate was removed from the incubator and the monolayer washed twice with pre-warmed HBSS (10 mM HEPES, pH 7.4).
# To determine the rate of drug transport in the apical to basolateral direction, 125 μL of the working solution of either test compounds or control compounds was added to the Transwell insert (apical compartment) and a 50 μL sample was immediately transported from the apical compartment to 200 μL of acetonitrile containing internal standard (100 nM alprazolam, 200 nM Caffeine and 100 nM tolbutamide) in a new 96-well plate as the initial donor sample (A-B). The sample was then vortexed at 1,000 rpm for 10 min. The receiver plate (basolateral compartment) wells were then filled with 235 μL of transport buffer. To determine the rate of drug transport in the basolateral to apical direction, 285 μL of the working solution of either test compounds or control compounds was added to the receiver plate wells (basolateral compartment) and a 50 μL sample was immediately transferred from the basolateral compartment to 200 μL of acetonitrile containing internal standard in a new 96-well plate as the initial donor sample (B-A). The sample was vortexed at 1,000 rpm for 10 min. The Transwell insert (apical compartment) was then filled with 75 μL of transport buffer and the apical to basolateral direction and the basolateral to apical direction were done at the same time. […] After incubation, 50 μL samples from donor sides (apical compartment for Ap→BI flux, and basolateral compartment for BI→Ap) and receiver sides (basolateral compartment for Ap→BI flux, and apical compartment for BI→Ap) were transferred to wells of a new 96-well plate, followed by the addition of 200 μL acetonitrile containing internal standard. All samples were vortexed for 10 min and then centrifuged at 3,220 g for 40 min. A 150 μL aliquot of the supernatant was then mixed with an appropriate volume of ultra-pure water prior to LC-MS/MS analysis.
# as §1, with “which was” for “and”
# as §2
structure (smiles),measurement,setting,value
"COc1cc(Nc2c(C#N)cnc3cc(OCCON4CCN(C)CC4)c(OC)cc23)c(F)cc1Cl [Compound 15, 4-((4-chloro-2-fluoro-5-methoxyphenyl)amino)-6-methoxy-7-(2-((4-methylpiperazin-1-yl)oxy)ethoxy)quinoline-3-carbonitrile]","fraction unbound at 6 h, 5 µM",[1],0.049
same,"Papp A→B at 2 h, 1 µM",MDCKII-MDR1 permeability,0.7 ×10⁻⁶ cm/s
same,"Papp B→A at 2 h, 1 µM",MDCKII-MDR1 permeability,19.3 ×10⁻⁶ cm/s
same,efflux ratio at 1 µM,MDCKII-MDR1 permeability,26.5
same,"Papp A→B at 2 h, 5 µM",Caco-2 permeability,1.9 ×10⁻⁶ cm/s

# Reference: US20260297031A1, “HYDROXYLAMINE-BASED BCR-ABL1 INHIBITORS FOR TREATMENT OF CANCER” (University of Georgia Research Foundation, Inc., priority 2023, published 2026)
